Series [1] in a line: Cytotoxicity on differentiated host THP-1 macrophages, resazurin assay. In kind it is cell-based, human. The conditions noted are these: human, PMA-differentiated THP-1 macrophages, read-out: Cytotoxicity, IC50 ± SD, THP‐1. Here is the method: Duplicate 96‐well plates (for respective anti‐amastigote and cytotoxicity assays) were seeded with 200 μl of a 2.5 × 10^5 cells/ml suspension treated with 25 ng/ml phorbol 12‐myristate 13‐acetate (PMA), followed by 48‐h incubation to promote differentiation into adherent macrophages.
Cytotoxicity of the compounds on the differentiated host THP-1 cells were also evaluated. As mentioned, duplicate plates of differentiated THP-1 cells were prepared during the anti-amastigote assay. These plates were incubated for 72 hours to differentiate, instead of replacing the growth medium with parasite-containing medium after 48 hours. […] Blanks were growth medium without cells. The treated plates were incubated for 72 hours, followed by the addition of 50 μL of resazurin solution (0.01% in PBS) to each well and 24-hour incubation.
In general terms: Resazurin is reduced to fluorescent resorufin, in cell work by metabolically active cells.

Series [2] deals with L. donovani strain 9515 amastigotes. The series can be described thus: Anti-amastigote assay (intramacrophage, THP-1 host, resazurin). In kind it is cell-based.
The subject of series [3] is L. donovani strain 1S amastigotes. Described as above. The conditions noted are these: Leishmania donovani, THP-1; L. donovani 1S; read-out: 1S IC50 ± SD, Amastigote. In kind it is cell-based.
Series [4] deals with L. major strain IR‐173 amastigotes. Described as above. In kind it is cell-based. The conditions noted are these: Leishmania major, THP-1, L. major IR‐173; read-out: Antileishmanial activity, IC50 ± SD, Amastigote.
The test system of series [5] is L. major strain IR‐173 promastigotes. The series can be described thus: Antipromastigote assay (resazurin). In kind it is cell-based. The conditions noted are these: Leishmania major; L. major IR‐173; read-out: Antileishmanial activity, IC50 ± SD, Promastigote.
Series [6] has as its system L. donovani strain 9515 promastigotes. In words: Antipromastigote assay (resazurin). Particulars: Leishmania donovani; L. donovani 9515; read-out: 9515 IC50 ± SD, Promastigote. In kind it is cell-based.
For series [7], the system named is L. donovani strain 1S promastigotes. In words: Antipromastigote assay (resazurin). In kind it is cell-based. The conditions noted are these: Leishmania donovani; L. donovani 1S; read-out: 1S IC50 ± SD, Promastigote.
The nature of a further series: in vitro. The conditions noted are these: African green monkey. Here is the method:
The assay method is available in the Supinfo S1.
African green monkey kidney epithelial (Vero) cells (Cellonex, South Africa) were cultured and the basal cytotoxicity of the synthesized compounds with antileishmanial and/or anticancer activity was evaluated using the resazurin assay, as described in Mangwegape et al. ^4 Emetine served as the standard cytotoxic drug. Further use of reference drugs, controls, data analysis, calculations and IC50 determinations were identical to that of the antileishmanial assay.

Take `O=C(N/N=C/c1ccc([N+](=O)[O-])o1)c1ccc(O)cc1` [NFX, Nifuroxazide, reference compound]: the IC50 – broadly, the concentration needed to halve the response being measured – at 72 h in series [1] is more than 100 µM. Besides, the “Selectivity index SI6” value in series [2] (L. donovani 9515: IC50 THP‐1/IC50 amastigote) is recorded as more than 14. Moreover, in series [2] (L. donovani 9515: IC50 Vero/IC50 amastigote), the “Selectivity index SI5” value was more than 14. The IC50 in series [3] is more than 10 µM; in series [4], more than 10 µM; in series [5] it was more than 10 µM; in series [6], more than 10 µM; in series [7] it was more than 10 µM; in the series “in vitro” it was more than 100 µM.

The values above are taken from paper PMC9546217, “Exploring novel nitrofuranyl sulfonohydrazides as anti‐Leishmania and anti‐cancer agents: Synthesis, in vitro efficacy and hit identification” (Chemical Biology & Drug Design, 2022).
